Laboratory results taken from patent publication EP4755885A1 (Shanghai Hansoh Biomedical Co., Ltd., priority 2023, dated 2025).
Blank lines part the entries; values can stand above or below the compound they belong to.

Legend:
[1] = Pharmacokinetic evaluation in mice, oral administration; format: in vivo, Balb/c mice; conditions: p.o. 5 mg/kg, plasma; for AUC(0-inf) / AUC(0-t) / Cmax / Tmax / MRT inf: mouse, in vivo, po; for MRT inf: read-out: MRT 0-∞
Procedure: Balb/c mice were used as test animals to study the pharmacokinetic behavior of the compound of the present invention in mice (plasma) at a dose of 5 mg/kg administered orally and 1 mg/kg administered intravenously.
Balb/c mice, 3 per group, male.
(§1) Preparation of drug for oral administration: 10%PEG400/10%PG/80% glycine buffer (100 mM glycine, 64 Mm NaOH, […]) buffer.
10 ml of PEG400, 10 ml of PG, and 80 ml of (100 mM glycine, 64 Mm NaOH, pH = 9) were measured into a 100 ml volumetric flask, vortexed, mixed homogeneously, and sonicated to obtain a clear solution.
Single PK: An example compound was weighed into a 4 mL glass bottle. The solution was added, and sonication was performed for 10 min to obtain a colorless clear solution having a concentration of 0.5 mg/mL.
The solution was added, and sonication was performed for 10 min to obtain a colorless clear solution having a concentration of 0.5 mg/mL.
Three Balb/c mice, male, respectively administered p.o. after fasting overnight, at a dose of 5 mg/kg and in an administration volume of 10 mL/kg.
The blood samples were placed in EDTA-K2 anticoagulant tubes and centrifuged at 6000 rpm at 4°C for 6 min to separate plasma, which was stored at -80°C. The mice were fed 4 h after administration.
(§2) • 1) 40 µL of a plasma sample was added with 160 µL of acetonitrile for precipitation, and after mixing, the mixture was centrifuged at 3500 × g for 5 to 20 min. • 2) The supernatant solution after treatment was taken for LC/MS/MS analysis of the concentration of the test compound. The LC/MS/MS analysis instrument was AB Sciex API 4000 Qtrap.
• Liquid phase condition: Shimadzu LC-20AD pump • Chromatographic column: Agilent ZORBAX XDB-C18 (50×2.1 mm, 3.5 µm) Mobile phase: Solution A was 0.1% formic acid aqueous solution, and Solution B was acetonitrile • Flow rate: 0.4 mL/min • Elution time: 0-4.0 min, the eluent was as follows:
Main pharmacokinetic parameters were calculated using WinNonlin 6.1.

human GLP-1 receptor [2] = biological target: T1, human GLP-1 receptor (Homo sapiens, UniProt P43220); test: cAMP production in cell line stably transformed with human GLP1 receptor, 30 min co-incubation (HTRF); format: cell-based; conditions: CHO-K1/GLP-1R/CRE-luc cells, stimulation for 0.5 h, read-out: EC50
T1 construct: expressed in transfected cells
T1 sequence (P43220 24-463): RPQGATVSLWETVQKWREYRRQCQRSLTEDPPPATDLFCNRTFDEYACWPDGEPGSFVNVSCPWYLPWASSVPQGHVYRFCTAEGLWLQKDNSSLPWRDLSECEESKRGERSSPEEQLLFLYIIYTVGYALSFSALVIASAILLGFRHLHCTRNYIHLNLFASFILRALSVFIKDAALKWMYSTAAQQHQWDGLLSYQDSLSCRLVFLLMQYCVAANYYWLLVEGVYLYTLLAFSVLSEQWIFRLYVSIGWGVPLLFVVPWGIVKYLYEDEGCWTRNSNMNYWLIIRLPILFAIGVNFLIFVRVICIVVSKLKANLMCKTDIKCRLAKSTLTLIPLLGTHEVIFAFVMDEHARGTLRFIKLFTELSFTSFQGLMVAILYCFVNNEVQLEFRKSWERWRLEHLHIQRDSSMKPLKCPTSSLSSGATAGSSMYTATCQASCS
Procedure: (§3) The purpose of this assay example is to test the ability of the compound to activate the human GLP-1 receptor on cell surface. The EC50 for stimulated cAMP production after activation characterizes the ability of the compound to activate the human GLP-1 receptor.
In this experiment, the compound and cells were co-incubated for 30 min.
(§4) Frozen cell line CHO-K1/GLP-1R/CRE-luc stably transformed with human GLP1 receptor was removed from a liquid nitrogen tank, and was placed in a 37°C water bath for rapid thawing. The cells were resuspended in DMEM/F12 medium, and after centrifugation, were washed once. The cells were resuspended in an experimental buffer, i.e., DMEM/F12 medium containing 0.1% casein. After centrifugation, cell density was adjusted using the experimental buffer. The cells were plated onto a 384-well plate at a density of 1500 cells/5 µL/well. Then, each well was added with 2.5 µL of IBMX working solution prepared with the buffer, the final concentration of IBMX being 0.5 mM, and 2.5 µL of a serially diluted compound sample (starting from […], 3-fold dilution, 12 concentrations). The plate was centrifuged at 1000 rpm for 1 min, and was stood for incubation at 37°C for 0.5 h. Determination was performed using the Cisbio cAMP - Gs Dynamic kit. cAMP-d2 and anti-cAMP-Eu3+-Cryptate were diluted 18-fold and 20-fold respectively with cAMP Lysis & Detection Buffer, and were respectively mixed homogeneously. Each well was added with 5 µL of diluted cAMP-d2 solution, and the plate was centrifuged at 1000 rpm for 1 min, and shaken for 30 seconds for homogeneous mixing. Then, each well was added with 5 µL of diluted anti-cAMP-Eu3+-Cryptate solution, and the plate was centrifuged at 1000 rpm for 1 min and was incubated in the dark at room temperature for 1 h. HTRF signals were read using the Biotek Synergy H1 microplate reader, the excitation wavelength being 320 nm and the emission wavelengths being 620 nm and 665 nm.
(§5) The signal-to-signal ratio was calculated (665 nm/620 nm * 10,000). Nonlinear fitting between the signal-to-signal ratio and the sample concentration was performed in GraphPad Prism 10 using a four-parameter equation to obtain the EC50 value.

[3] = Pharmacokinetic evaluation in beagles, oral administration; format: in vivo; conditions: dog, po, p.o. 2 mg/kg, plasma; for Cmax: read-out: Cmax; for MRT inf: read-out: MRT 0-∞; for Tmax: read-out: tmax
Procedure: Beagles were used as test animals to study the pharmacokinetic behavior of the compound of the present invention, administered orally at a dose of 2 mg/kg, in beagles (plasma).
Beagles, 3 per group, male.
as §1
Single PK: The compound of the present invention was weighed into a 100 mL glass bottle, and the solution was added. The pH was first adjusted with 1 M NaOH until the compound dissolves to obtain a clear solution, and then the pH was readjusted to pH 9.0-9.5 with 1 M HCl. Sonication was performed for 10 min to obtain a colorless clear solution having a concentration of 0.4 mg/mL.
Three beagles, male, respectively administered p.o. after fasting overnight, at a dose of 2 mg/kg and in an administration volume of 5 mL/kg.
Blood collection: 0.3 mL of blood was collected from the forelimb vein of the beagles before administration and at 0.25, 0.5, 1, 2, 4, 6, 8, and 24 h after administration. The blood samples were placed in EDTA-K2 anticoagulant tubes and centrifuged at 6000 rpm at 4°C for 6 min to separate plasma, which was stored at -80°C. The beagles were fed 4 h after administration.
as §2
• Liquid phase condition: Shimadzu LC-20AD pump • Chromatographic column: Agilent ZORBAX XDB-C18 (50×2.1 mm, 3.5 µm) Mobile phase: Solution A was 0.1% formic acid aqueous solution, and Solution B was acetonitrile • Flow rate: 0.4 mL/min • Elution time: 0-4.0 min, the eluent was as follows: […]

human GLP-1 receptor [4] = biological target: T1, human GLP-1 receptor; test: cAMP production in cell line stably transformed with human GLP1 receptor, 2 h co-incubation (HTRF); format: cell-based; conditions: CHO-K1/GLP-1R/CRE-luc cells, stimulation for 2 h, read-out: EC50
Procedure: as §3
In this experiment, the compound and cells were co-incubated for 2 h.
as §4, with “for 2” for “for 0.5”
as §5

[5] = not marked single PK (cassette PK)

SMILES: Cc1cc(-n2nc3c(c2-n2ccn(-c4ccc(CC(=O)N(C)C)cc4F)c2=O)[C@H](C)N(C(=O)c2cc4cc([C@H]5CCOC(C)(C)C5)ccc4n2[C@@]2(c4noc(=O)[nH]4)C[C@@H]2C)CC3)cc(C)c1F [Example 7]
AUC(0-inf) [1, 5]: 10800 ng·h/mL | AUC(0-t) [1, 5]: 10300 ng·h/mL | Cmax [1, 5]: 2970 ng/mL | Tmax [1, 5]: 0.5 h | MRT inf [1, 5]: 2.8 h | tl/2 [1, 5]: 1.6 h | EC50 (human GLP-1 receptor [2]): 0.3 nM

SMILES: [2H]C([2H])([2H])n1nc2c3c(c(-n4ccn(-c5c6c(nn5-c5cc(C)c(F)c(C)c5)CCN(C(=O)c5cc7cc([C@H]8CCOC(C)(C)C8)ccc7n5[C@@]5(c7noc(=O)[nH]7)C[C@@H]5C#C)[C@H]6C)c4=O)ccc31)OCCC2 [Example 287, 3-((1S,2R)-1-(5-((S)-2,2-dimethyltetrahydro-2H-pyran-4-yl)-2-((S)-2-(4-fluoro-3,5-dimethylphenyl)-4-methyl-3-(3-(2-(methyl-d3)-2,7,8,9-tetrahydrooxaheptano[4,3,2-cd]indazol-5-yl)-2-carbonyl-2,3-dihydro-1H-imidazol-1-yl)-4,5,6,7-tetrahydro-2H-pyrazolo[4,3-c]pyridine-5-carbonyl)-1H-indol-1-yl)-2-ethynylcyclopropyl)-1,2,4-oxadiazol-5(4H)-one]
AUC(0-inf) ([1]; single PK): 28000 ng·h/mL | AUC(0-t) ([1]; single PK): 27900 ng·h/mL | Cmax ([1]; single PK): 5320 ng/mL | Tmax ([1]; single PK): 1 h | MRT inf ([1]; single PK): 4.2 h | tl/2 ([1]; single PK): 3.0 h | AUC(0-inf) [3]: 17200 ng·h/mL | AUC(0-t) at 24 h [3]: 17000 ng·h/mL | half-life [3]: 3.7 h | Cmax [3]: 1880 ng/mL | MRT inf [3]: 6.1 h | Tmax [3]: 2.3 h | EC50 (human GLP-1 receptor [2]): 0.9 nM

SMILES: Cc1cc(-n2nc3c(c2-n2ccn(-c4ccc5c(c4)OCc4nnc(C)n4-5)c2=O)[C@H](C)N(C(=O)c2cc4cc([C@H]5CCOC(C)(C)C5)ccc4n2[C@@]2(c4noc(=O)[nH]4)C[C@@H]2C)CC3)cc(C)c1F [Example 19]
EC50 (human GLP-1 receptor [2]): 0.88 nM

SMILES: Cc1cc(-n2nc3c(c2-n2ccn(-c4ccc(N=S(C)(C)=O)cc4F)c2=O)[C@H](C)N(C(=O)c2cc4cc([C@H]5CCOC(C)(C)C5)ccc4n2[C@@]2(c4noc(=O)[nH]4)C[C@@H]2C)CC3)cc(C)c1F [Example 1]
EC50 (human GLP-1 receptor [2]): 0.37 nM

SMILES: [2H]C([2H])([2H])N1C(=O)C2CC2c2cc(-n3ccn(-c4c5c(nn4-c4cc(C)c(F)c(C)c4)CCN(C(=O)c4cc6cc([C@H]7CCOC(C)(C)C7)ccc6n4[C@@]4(c6noc(=O)[nH]6)C[C@@H]4C)[C@H]5C)c3=O)ccc21 (some centres unmarked) [Example 61]
EC50 (human GLP-1 receptor [2]): 1.39 nM

SMILES: Cc1cc(-n2nc3c(c2-n2ccn(-c4ccc5c(c4)CCc4nnc(C)n4-5)c2=O)[C@H](C)N(C(=O)c2cc4cc([C@H]5CCOC(C)(C)C5)ccc4n2[C@@]2(c4noc(=O)[nH]4)C[C@@H]2C)CC3)cc(C)c1F [Example 8]
EC50 (human GLP-1 receptor [2]): 0.51 nM

SMILES: [2H]C([2H])([2H])N1C(=O)C2(CC2)c2cc(-n3ccn(-c4c5c(nn4-c4cc(C)c(C#N)c(C)c4)CCN(C(=O)c4cc6cc([C@H]7CCOC(C)(C)C7)ccc6n4[C@@]4(c6noc(=O)[nH]6)C[C@@H]4C)[C@H]5C)c3=O)ccc21 [Example 162]
EC50 (human GLP-1 receptor [4]): 0.1 nM | EC50 (human GLP-1 receptor [2]): 0.25 nM

EC50 (human GLP-1 receptor [4]): 0.09 nM | AUC(0-inf) ([3]; male, beagle): 19400 ng·h/mL | half-life ([3]; male, beagle): 4.1 h | AUC(0-t) ([3]; male, beagle, read-out: AUC 0-t): 19200 ng·h/mL | Cmax ([3]; male, beagle): 3600 ng/mL | MRT inf ([3]; male, beagle): 5.3 h | Tmax ([3]; male, beagle): 1.5 h | EC50 (human GLP-1 receptor [2]): 0.71 nM
SMILES: [2H]C([2H])([2H])n1nc2c3c(c(-n4ccn(-c5c6c(nn5-c5cc(C)c(F)c(C)c5)CCN(C(=O)c5cc7cc([C@H]8CCOC(C)(C)C8)ccc7n5[C@@]5(c7noc(=O)[nH]7)C[C@@H]5COC5CC5)[C@H]6C)c4=O)ccc31)OCCC2 [Example 285, 3-((1S,2S)-2-(cyclopropyloxymethyl)-1-(5-((S)-2,2-dimethyltetrahydro-2H-pyran-4-yl)-2-((S)-2-(4-fluoro-3,5-dimethylphenyl)-4-methyl-3-(3-(2-(methyl-d3)-2,7,8,9-tetrahydrooxahepta[4,3,2-cd]indazol-5-yl)-2-carbonyl-2,3-dibydro-1H-imidazol-1-yl)-4,5,6,7-tetrahydro-2H-pyrazolo[4,3-c]pyridine-5-carbonyl)-1H-indol-1-yl)cyclopropyl)-1,2,4-oxadiazol-5(4H)-one]

SMILES: Cc1cc(-n2nc3c(c2-n2ccn(-c4ccc5c(c4F)C4(CC4)C(=O)N5C)c2=O)[C@H](C)N(C(=O)c2cc4cc([C@H]5CCOC(C)(C)C5)ccc4n2[C@@]2(c4noc(=O)[nH]4)C[C@@H]2C)CC3)cc(C)c1F [Example 15]
EC50 (human GLP-1 receptor [2]): 0.32 nM
